According to patent publication US8586568B2, “Methods and products for treatment of diseases” (Ampio Pharmaceuticals, Inc., priority 2005, dated 2013):
Where two headings read alike, the source gives them in different places.

Experiments:
HUVEC cells [1] = assay: Trilostane III tube formation assay in extracellular matrix gel; assay type: cell-based, Human; details: 50 μM, 18 hours
Experimental: 1. […] EGM-2 with 0.1% FCS.
2. Cell suspensions containing 10,000 cells and compounds in both EGM-2 0.1% and 5% FCS were added per well then incubated for 18 hours at 37° C. and 5% CO2.
3. Following incubation, tube formations were photographed under microscope.
Passage 3 HUVEC 8750 cells were used for this experiment at 98% viability by trypan blue exclusion at time of seeding.

HUVEC cells [2] = assay: Trilostane III effect on HUVEC cell proliferation (Celltiter 96 Aqueous One); assay type: cell-based, Human; details: for mean OD: 5% FCS, blank subtracted; for OD 1: replicate 1; for OD 2: replicate 2; for OD 3: replicate 3; for inhibition at 100 µM: Homo sapiens, HUVEC, read-out: inhibition of cultures (cell proliferation)
Experimental: 2. Medium was aspirated and the cells were then washed two times with 37° C. HBSS.
4. Cells were again washed to times with warm HBSS and then Celltiter reagent in EGM-2 with 0.1% FCS was added.
5. After 4 hours in culture the OD of each well was determine at 470 nm.
6. Repeat steps 4 and 5 for each time point.
Results are presented as mean OD of samples performed in triplicate (n=3) with mean blank OD subtracted. HUVEC 8750 cells were used for this experiment with 98% viability by trypan blue exclusion at time of seeding. […] The raw data are shown in Table 2 below and depicted graphically in FIG. 2.

[3] = system: Human umbilical vein endothelial cells 7016 (HUVEC); assay: Invasion chamber: fetal calf serum induced endothelial cell invasion through matrigel treated inserts (trilostane III); details: for effect on endothelial cell invasion: high dose (50 μM), 5% FCS induced invasion; for Mean FU: 5% FCS in bottom chamber, 24 hours, background subtracted, n=3
Experimental: 1. Trypsinized HUVEC cells from flasks grown in Cambrex EGM-2 media to 70-80% confluence were washed two times with 37° C. EGM-2 with 0.1% FCS.
2. Cell suspensions containing 30,000 cells and compounds in EGM-2 0.1% FCS were added to the upper chamber of inserts.
3. EGM-2 containing 5% FCS was added to the bottom chamber and then incubated for 24 hours at 37° C. and 5% CO2.
4. Non-invading cells were removed from the upper chamber with cotton swab and the inserts were washed two times with 37° C. HBSS.
5. Inserts were then placed in wells containing 10 μM Calcein AM in HBSS.
6. Following four hours at 37° C. and 5% CO2, fluorescence was measured at 485 nm excitation and 595 nm emission.
Results are presented as mean fluorescent units (FU) in triplicate (n=3) with background fluorescence subtracted. […] To determine background invasion, nil inserts were included in triplicate that had EGM-2 with 0.1% FCS added to the bottom chamber.

HUVEC cells [4] = assay: Danazol BioCoat Matrigel Invasion Chamber; assay type: cell-based, Human; details: 5% FCS in bottom chamber, 24 hours
Experimental: BioCoat Matrigel Invasion Chambers were purchased from BD Biosciences (San Jose, Calif.). Inserts were rehydrated at 37° C. with 500 μl HBSS for 2 hours prior to use in humidified incubator. Trypsinized HUVEC cells were washed twice with warm EGM-2 containing 0.1% FCS and added to the upper chamber of the invasion insert at 100,000 cells in a total volume of 250 μl. Danazol and control compounds were added to the upper reservoir at final concentrations of 10 μM and 100 μM. 750 μl EGM-2 supplemented with 5% FCS was added to the bottom chamber to initiate invasion and the plates were incubated for 24 hours. Non-invasive cells were removed from the upper chamber with moistened cotton swabs and then the inserts were washed twice with HBSS. The inserts were then submerged in 10 μM calcein AM prepared in HBSS and incubated for 4 hours. Fluorescence was determined in a microplate reader at 485 nm excitation and 595 nm emission.
All data is presented as representative experiment done in triplicate. Differences between subsets were analyzed using student t-test in Microsoft Excel. P<0.05 was considered statistically significant.

HUVEC cells [5] = assay: Danazol Endothelial Cell Tube Formation Assay on matrigel plugs; assay type: cell-based, Human; details: 5% FCS, 18 hours
Experimental: To investigate the formation of capillary-like structures by HUVEC cells, the Angiogenesis System Endothelial Cell Tube Formation Assay was purchased from BD Biosciences (San Jose, Calif.) and used according to the manufacturers protocol. In brief, 100,000 HUVEC cells were seeded onto rehydrated matrigel plugs in 96 well tissue culture plates in the presence of 5% FCS to induce tube formation. […] After 18 hours the wells were photographed using a Kodak DCS Pro SLR/N digital camera (Rochester, N.Y.) mounted on an inverted microscope. Ethanol treated wells were included to determine if the vehicle had any effects on cell differentiation.

HUVEC cells [6] = assay: Danazol effect on HUVEC cell proliferation (Celltiter 96 AQueous One); assay type: cell-based, Human; details: for OD: OD±standard deviation
Experimental: Primary HUVEC and EGM-2 growth medium were obtained from Cambrex (Walkersville, Md.). The cells were passaged in medium supplemented with 2% fetal calf serum (FCS) in tissue culture flasks at 37° C. and 5% CO2. Subculturing was performed using trypsin when 60-80% confluence was obtained as specified by the supplier.
Cryopreserved ampoules of passage 2 HUVEC cells were thawed and plated in 96 well tissue culture plates at 5,000 cells/cm^2. A 50 mM stock solution of danazol was prepared in ethanol and the FCS in the medium was increased to 5% to keep danazol in solution. The cells were treated with medium containing final concentrations of danazol ranging from 0.1 to 100 μM in triplicates. 24, 48, and 72 hour incubations were performed and cell proliferation was determined utilizing Celltiter 96 AQueous One Solution Cell Proliferation assay from Promega (Madison, Wis.). In short, medium was aspirated from each well and the cells were washed with 200 μl […] buffered saline (HBSS) from Cambrex warmed to 37° C. 100 μl diluted celltiter solution (15 μl stock+85 μl EGM-2 containing 0.1% FCS) were added to each well and incubated for an additional 4 hours. Optical density was determined by microplate reader using a 530 nm filter after blank subtraction and data presented as OD±standard deviation. The final concentration of ethanol in the wells was less then 0.2% and had no effect on cell proliferation or viability.
All data are presented as representative experiment done in triplicate. Differences between subsets were analyzed using student t-test in Microsoft Excel. P<0.05 was considered statistically significant.

[7] = without added 5% FCS (nil wells, 0.1% FCS)
[8] = Homo sapiens, HUVEC, 24 h, read-out: percent inhibition of proliferation
[9] = Homo sapiens, HUVEC, 48 h, read-out: percent inhibition of proliferation
[10] = Homo sapiens, HUVEC, 72 h, read-out: percent inhibition of proliferation

## C[C@]12CCC3C(CC[C@@]45O[C@@H]4C4ON=CC4C[C@]35C)C1CC[C@@H]2O (stereo partly drawn) [trilostane III]
HUVEC cells [1]; in the presence of 5% fetal calf serum
  tube formation: greatly reduced tube formation
HUVEC cells [1]; [7]
  tube formation: decrease in branching, vacuole formation, and increase in satellite cells
HUVEC cells [2]; 0.1 uM, 24 hour
  mean OD: 0.3873
  OD 1: 0.362
  OD 2: 0.368
  OD 3: 0.432
HUVEC cells [2]; 0.1 uM, 48 hour
  mean OD: 0.656
  OD 1: 0.575
  OD 2: 0.698
  OD 3: 0.695
HUVEC cells [2]; 0.1 uM, 72 hour
  mean OD: 0.9187
  OD 1: 0.733
  OD 2: 0.962
  OD 3: 1.061
HUVEC cells [2]; 1 uM, 24 hour
  mean OD: 0.311
  OD 1: 0.284
  OD 2: 0.328
  OD 3: 0.321
HUVEC cells [2]; 1 uM, 48 hour
  mean OD: 0.4347
  OD 1: 0.358
  OD 2: 0.489
  OD 3: 0.457
HUVEC cells [2]; 1 uM, 72 hour
  mean OD: 0.3877
  OD 1: 0.387
  OD 2: 0.437
  OD 3: 0.339
HUVEC cells [2]; 10 uM, 24 hour
  mean OD: 0.2467
  OD 1: 0.18
  OD 2: 0.267
  OD 3: 0.293
HUVEC cells [2]; 10 uM, 48 hour
  mean OD: 0.203
  OD 1: 0.159
  OD 2: 0.208
  OD 3: 0.242
HUVEC cells [2]; 10 uM, 72 hour
  mean OD: 0.072
  OD 1: 0.031
  OD 2: 0.095
  OD 3: 0.09
HUVEC cells [2]; 100 uM, 24 hour
  mean OD: 0.2787
  OD 1: 0.235
  OD 2: 0.334
  OD 3: 0.267
HUVEC cells [2]; 100 uM, 48 hour
  mean OD: 0.2147
  OD 1: 0.17
  OD 2: 0.23
  OD 3: 0.244
HUVEC cells [2]; 100 uM, 72 hour
  mean OD: 0.108
  OD 1: 0.092
  OD 2: 0.119
  OD 3: 0.113
HUVEC cells [2]; 24 hours
  lowest concentration with statistically relevant decrease in cell proliferation: 1 µM
  inhibition at 100 µM: 33%
HUVEC cells [2]; 48 hours
  inhibition at 100 µM: 67%
HUVEC cells [2]; 72 hours
  inhibition at 100 µM: 90%
HUVEC cells [2]; all wells, even highest doses after 72 hours in culture
  cell viability under inverted microscope: Viable cells were visible in all wells
[3]
  effect on endothelial cell invasion: dropped the levels back to background

## O=c1cc(N2CCOCC2)oc2c(-c3ccccc3)cccc12 [LY294002]
HUVEC cells [4]; concentration not stated with the value
  fluorescence of invaded cells: 5814±153 FU
[3]; 50 μM
  Mean FU: 9454.33 FU

## C#C[C@]1(O)CC[C@H]2[C@@H]3CCC4=Cc5oncc5C[C@]4(C)[C@H]3CC[C@@]21C [danazol, 17α-pregna-2,4-dien-20-yno[2,3-d]-isoxazol-17β-ol]
HUVEC cells [4]; 10 μM
  effect on cell invasion: had no effect
HUVEC cells [4]; 100 μM
  effect on cell invasion: had no effect
HUVEC cells [5]; 50 μM
  tube formation: isolated colonies of HUVEC located in the plug with very few, thin connections or vessel lumen spaces
HUVEC cells [5]; danazol 1-50 μM
  tube formation: fewer organized structures with thin and less defined interconnections than controls
HUVEC cells [6]; 0.1 μM, 72 hours
  OD: 0.798±0.037
HUVEC cells [6]; 1 μM, 48 hours
  OD: 0.378±0.037
HUVEC cells [6]; 1 μM, 72 hours
  OD: 0.484±0.022
HUVEC cells [6]; 10 μM, 24 hours
  OD: 0.288±0.037
HUVEC cells [6]; 10 μM, 48 hours
  OD: 0.241±0.012
HUVEC cells [6]; 10 μM, 72 hours
  OD: 0.229±0.016
HUVEC cells [6]; 100 μM, 24 hours
  OD: 0.162±0.017
HUVEC cells [6]; 100 μM, 48 hours
  OD: 0.19±0.033
HUVEC cells [6]; 100 μM, 72 hours
  OD: 0.156±0.018
HUVEC cells [6]; 100 μM, all time points
  effect on cell proliferation: complete arrest of cell proliferation
HUVEC cells [6]; 48 hours
  concentration at which inhibition was significant: approximately 1 μM
HUVEC cells [6]; [8]
  inhibition at 10 µM: 30%
  inhibition at 100 µM: 65%
HUVEC cells [6]; [9]
  inhibition at 1 µM: 40%
  inhibition at 10 µM: 61%
  inhibition at 100 µM: 70%
HUVEC cells [6]; [10]
  inhibition at 0.1 µM: 28%
  inhibition at 1 µM: 57%
  inhibition at 10 µM: 80%
  inhibition at 100 µM: 86%

## 2α-cyano-4α,5α-epoxyandrostan-17β-ol-3-one [trilostane]
[3]; 25 μM
  Mean FU: 11212.3 FU
[3]; 50 μM
  Mean FU: 9101.33 FU

## O=c1cc(N2CCNCC2)oc2c(-c3ccccc3)cccc12 [LY303511]
HUVEC cells [1]; [7]
  tube formation: comparable tube formations to untreated cells
[3]; 50 μM
  Mean FU: 12795.3 FU
[3]
  effect on endothelial cell invasion: had no effect on invasion
